How the values were obtained:
[1] = target: Serine/threonine-protein kinase PAK 1 (Homo sapiens) (UniProt Q13153); test: Inhibition of PAK1 (unknown origin) at 50 nM by Z'LYTE screening method relative to control
[2] = target: Protein kinase C beta type (Homo sapiens) (UniProt P05771); test: Inhibition of PKCbeta1 (unknown origin) at 50 nM by Z'LYTE screening method relative to control
[3] = target: Protein kinase C delta type (Homo sapiens) (UniProt Q05655); test: Inhibition of PKCdelta (unknown origin) at 50 nM by Z'LYTE screening method relative to control
[4] = target: Ribosomal protein S6 kinase alpha-1 (Homo sapiens) (UniProt Q15418); test: Inhibition of RPS6KA1 (unknown origin) at 50 nM by Z'LYTE screening method relative to control
[5] = target: Proto-oncogene tyrosine-protein kinase Src (Homo sapiens) (UniProt P12931); test: Inhibition of SRC (unknown origin) at 50 nM by Z'LYTE screening method relative to control
[6] = target: Protein kinase C theta type (Homo sapiens, UniProt Q04759); test: Inhibition of PKCtheta (unknown origin) at 50 nM by Z'LYTE screening method relative to control
[7] = target: Ribosomal protein S6 kinase beta-1 (Homo sapiens) (UniProt P23443); test: Inhibition of p70S6K (unknown origin) at 50 nM by Z'LYTE screening method relative to control
[8] = target: Vascular endothelial growth factor receptor 1 (Homo sapiens) (UniProt P17948); test: Inhibition of FLT1/VEGFR1(unknown origin) at 50 nM by Z'LYTE screening method relative to control
[9] = target: Fibroblast growth factor receptor 1 (Homo sapiens) (UniProt P11362); test: Inhibition of FGFR1 (unknown origin) at 50 nM by Z'LYTE screening method relative to control
[10] = target: Protein kinase C beta type (Homo sapiens) (UniProt P05771); test: Inhibition of PKCbeta2 (unknown origin) at 50 nM by Z'LYTE screening method relative to control
[11] = target: T1, Protein kinase C epsilon type (Homo sapiens) (UniProt Q02156); test: Inhibition of PKCepsilon (unknown origin) at 50 nM by Z'LYTE screening method relative to control
T1 sequence (whole entry): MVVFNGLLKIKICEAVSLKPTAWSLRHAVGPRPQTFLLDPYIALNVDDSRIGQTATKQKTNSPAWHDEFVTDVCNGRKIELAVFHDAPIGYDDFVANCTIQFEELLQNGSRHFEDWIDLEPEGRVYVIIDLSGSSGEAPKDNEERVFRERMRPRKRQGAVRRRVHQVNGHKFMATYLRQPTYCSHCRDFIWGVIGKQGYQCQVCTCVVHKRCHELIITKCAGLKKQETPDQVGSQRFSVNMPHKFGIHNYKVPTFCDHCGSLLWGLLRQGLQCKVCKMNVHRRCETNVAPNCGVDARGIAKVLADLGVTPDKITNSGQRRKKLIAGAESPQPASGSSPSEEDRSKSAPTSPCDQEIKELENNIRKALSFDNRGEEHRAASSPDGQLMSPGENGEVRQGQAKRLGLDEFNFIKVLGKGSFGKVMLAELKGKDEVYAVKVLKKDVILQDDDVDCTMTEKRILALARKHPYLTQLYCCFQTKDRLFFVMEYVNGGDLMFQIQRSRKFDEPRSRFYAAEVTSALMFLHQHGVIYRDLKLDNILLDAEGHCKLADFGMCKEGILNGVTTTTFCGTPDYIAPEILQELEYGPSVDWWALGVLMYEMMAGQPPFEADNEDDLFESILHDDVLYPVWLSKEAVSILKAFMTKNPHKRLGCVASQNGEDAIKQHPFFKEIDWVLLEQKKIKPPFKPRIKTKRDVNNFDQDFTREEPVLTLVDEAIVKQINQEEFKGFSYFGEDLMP

[12] = target: T2, Aurora kinase A (Homo sapiens) (UniProt O14965); test: Inhibition of AURA (unknown origin) at 50 nM by Z'LYTE screening method relative to control
T2 sequence (whole entry): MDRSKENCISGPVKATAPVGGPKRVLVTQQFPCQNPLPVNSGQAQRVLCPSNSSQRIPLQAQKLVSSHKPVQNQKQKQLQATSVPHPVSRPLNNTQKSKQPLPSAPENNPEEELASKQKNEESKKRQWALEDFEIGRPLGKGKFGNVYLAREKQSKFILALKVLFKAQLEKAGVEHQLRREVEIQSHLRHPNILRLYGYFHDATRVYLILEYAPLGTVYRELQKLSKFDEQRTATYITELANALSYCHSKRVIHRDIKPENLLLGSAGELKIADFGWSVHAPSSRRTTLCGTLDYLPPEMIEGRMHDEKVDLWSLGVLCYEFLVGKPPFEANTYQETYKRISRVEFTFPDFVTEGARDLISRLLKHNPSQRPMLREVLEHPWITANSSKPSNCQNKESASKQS

[13] = target: DNA-dependent protein kinase catalytic subunit (Homo sapiens) (UniProt P78527); test: Inhibition of DNA-PK (unknown origin) at 50 nM by Z'LYTE screening method relative to control
[14] = target: Proto-oncogene tyrosine-protein kinase receptor Ret (Homo sapiens) (UniProt P07949); test: Inhibition of RET (unknown origin) at 50 nM by Z'LYTE screening method relative to control
[15] = target: Tyrosine-protein kinase SYK (Homo sapiens) (UniProt P43405); test: Inhibition of SYK (unknown origin) at 50 nM by Z'LYTE screening method relative to control
[16] = test system: MDA-MB-231; test: Cytotoxicity against human MDA-MB-231/M cells assessed as reduction in cell viability incubated for 96 hrs by MTT assay; format: functional, cell-based; details: MDA-MB-231, 96 h
[17] = target: Aurora kinase B (Homo sapiens) (UniProt Q96GD4); test: Inhibition of AURB (unknown origin) at 50 nM by Z'LYTE screening method relative to control
[18] = target: PI3-kinase p110-alpha/p85-alpha (Homo sapiens) (UniProt P27986+P42336); test: Inhibition of p110alpha/p85alpha (unknown origin) at 50 nM by Z'LYTE screening method relative to control; format: protein-complex assay
[19] = target: ALK tyrosine kinase receptor (Homo sapiens) (UniProt Q9UM73); test: Inhibition of ALK (unknown origin) at 50 nM by Z'LYTE screening method relative to control

Sequence of Protein kinase C beta type (Homo sapiens) (P05771 2-671 limits assumed): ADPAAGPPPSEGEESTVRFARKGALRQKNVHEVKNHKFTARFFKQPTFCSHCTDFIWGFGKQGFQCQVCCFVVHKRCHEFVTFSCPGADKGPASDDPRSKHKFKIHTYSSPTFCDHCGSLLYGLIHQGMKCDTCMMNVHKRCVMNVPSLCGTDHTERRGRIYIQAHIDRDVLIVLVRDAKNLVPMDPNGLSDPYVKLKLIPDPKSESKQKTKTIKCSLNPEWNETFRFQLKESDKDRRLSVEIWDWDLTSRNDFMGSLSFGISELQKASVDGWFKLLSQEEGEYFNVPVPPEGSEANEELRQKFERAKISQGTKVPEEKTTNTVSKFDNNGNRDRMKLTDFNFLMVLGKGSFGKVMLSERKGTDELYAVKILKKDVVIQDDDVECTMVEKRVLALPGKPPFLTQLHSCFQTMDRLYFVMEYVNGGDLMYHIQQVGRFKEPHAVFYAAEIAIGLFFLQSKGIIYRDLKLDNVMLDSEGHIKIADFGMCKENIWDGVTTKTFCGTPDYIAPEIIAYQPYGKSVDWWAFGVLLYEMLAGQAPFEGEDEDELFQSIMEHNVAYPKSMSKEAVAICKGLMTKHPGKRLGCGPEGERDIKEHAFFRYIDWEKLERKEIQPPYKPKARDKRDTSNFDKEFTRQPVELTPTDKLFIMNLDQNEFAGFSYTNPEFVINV
Sequence of Fibroblast growth factor receptor 1 (Homo sapiens) (P11362 22-822 limits assumed): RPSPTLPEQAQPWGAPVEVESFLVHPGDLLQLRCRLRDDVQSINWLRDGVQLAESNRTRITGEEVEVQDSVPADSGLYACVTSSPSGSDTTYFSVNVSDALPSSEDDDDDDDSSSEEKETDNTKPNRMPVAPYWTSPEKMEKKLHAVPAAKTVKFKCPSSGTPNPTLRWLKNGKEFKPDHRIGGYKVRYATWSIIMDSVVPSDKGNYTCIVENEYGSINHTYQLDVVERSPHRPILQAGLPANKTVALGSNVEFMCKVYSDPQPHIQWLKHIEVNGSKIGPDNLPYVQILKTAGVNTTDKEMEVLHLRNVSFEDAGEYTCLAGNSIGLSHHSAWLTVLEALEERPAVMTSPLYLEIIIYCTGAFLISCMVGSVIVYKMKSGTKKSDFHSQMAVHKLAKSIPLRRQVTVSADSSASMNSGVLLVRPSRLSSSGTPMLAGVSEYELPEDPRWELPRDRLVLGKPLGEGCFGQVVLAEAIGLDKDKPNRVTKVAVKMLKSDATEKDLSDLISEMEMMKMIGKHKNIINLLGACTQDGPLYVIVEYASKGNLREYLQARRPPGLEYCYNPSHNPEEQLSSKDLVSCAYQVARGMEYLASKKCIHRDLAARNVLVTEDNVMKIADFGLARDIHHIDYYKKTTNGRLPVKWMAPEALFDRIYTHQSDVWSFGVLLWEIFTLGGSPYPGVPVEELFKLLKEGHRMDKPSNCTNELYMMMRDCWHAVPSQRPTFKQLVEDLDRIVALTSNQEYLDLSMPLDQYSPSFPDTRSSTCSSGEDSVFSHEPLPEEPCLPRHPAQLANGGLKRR
Sequence of Vascular endothelial growth factor receptor 1 (Homo sapiens) (P17948 whole entry): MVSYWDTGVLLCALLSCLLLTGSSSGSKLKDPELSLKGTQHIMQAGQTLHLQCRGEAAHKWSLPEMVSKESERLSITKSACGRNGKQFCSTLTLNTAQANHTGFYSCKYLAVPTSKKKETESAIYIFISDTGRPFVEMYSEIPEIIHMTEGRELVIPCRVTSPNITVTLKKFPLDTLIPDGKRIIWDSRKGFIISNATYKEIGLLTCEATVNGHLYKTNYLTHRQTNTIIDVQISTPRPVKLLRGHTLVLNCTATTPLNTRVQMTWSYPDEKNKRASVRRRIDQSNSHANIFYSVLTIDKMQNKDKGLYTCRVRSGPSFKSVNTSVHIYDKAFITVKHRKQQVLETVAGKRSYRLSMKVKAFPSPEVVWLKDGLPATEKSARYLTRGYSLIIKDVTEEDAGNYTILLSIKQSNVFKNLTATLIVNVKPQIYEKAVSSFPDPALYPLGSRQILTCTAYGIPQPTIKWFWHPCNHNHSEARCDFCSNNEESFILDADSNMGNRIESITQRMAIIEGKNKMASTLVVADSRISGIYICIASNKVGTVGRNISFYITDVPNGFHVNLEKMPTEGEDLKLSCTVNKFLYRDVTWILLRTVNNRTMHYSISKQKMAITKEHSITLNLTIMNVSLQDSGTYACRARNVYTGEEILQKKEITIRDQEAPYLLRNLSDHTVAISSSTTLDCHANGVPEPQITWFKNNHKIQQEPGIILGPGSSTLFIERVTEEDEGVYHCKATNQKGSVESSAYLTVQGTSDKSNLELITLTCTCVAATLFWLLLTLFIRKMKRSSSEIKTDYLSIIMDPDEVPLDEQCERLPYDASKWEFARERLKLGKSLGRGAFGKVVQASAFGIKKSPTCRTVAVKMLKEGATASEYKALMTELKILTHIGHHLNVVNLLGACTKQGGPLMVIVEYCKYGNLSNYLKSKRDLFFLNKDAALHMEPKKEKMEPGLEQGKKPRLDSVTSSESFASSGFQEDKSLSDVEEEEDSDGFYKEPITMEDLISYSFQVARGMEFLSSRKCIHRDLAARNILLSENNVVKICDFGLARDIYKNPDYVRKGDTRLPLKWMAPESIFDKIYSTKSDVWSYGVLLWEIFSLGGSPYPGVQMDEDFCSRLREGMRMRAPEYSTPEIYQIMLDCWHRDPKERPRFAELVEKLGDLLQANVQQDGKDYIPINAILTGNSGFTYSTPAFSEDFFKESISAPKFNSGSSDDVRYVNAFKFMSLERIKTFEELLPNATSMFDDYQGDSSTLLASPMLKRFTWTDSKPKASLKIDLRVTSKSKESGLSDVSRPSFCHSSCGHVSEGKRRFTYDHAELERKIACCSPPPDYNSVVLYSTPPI
Sequence of Aurora kinase B (Homo sapiens) (Q96GD4 whole entry): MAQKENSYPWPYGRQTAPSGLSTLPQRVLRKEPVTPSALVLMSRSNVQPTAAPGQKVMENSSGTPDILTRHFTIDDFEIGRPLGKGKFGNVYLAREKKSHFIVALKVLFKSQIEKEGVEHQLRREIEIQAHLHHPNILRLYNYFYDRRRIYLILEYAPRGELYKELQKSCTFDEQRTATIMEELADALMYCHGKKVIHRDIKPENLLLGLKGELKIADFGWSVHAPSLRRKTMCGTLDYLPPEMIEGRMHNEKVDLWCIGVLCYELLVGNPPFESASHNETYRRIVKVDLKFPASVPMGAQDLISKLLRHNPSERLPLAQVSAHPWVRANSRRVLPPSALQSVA
Sequence of Serine/threonine-protein kinase PAK 1 (Homo sapiens) (Q13153 whole entry): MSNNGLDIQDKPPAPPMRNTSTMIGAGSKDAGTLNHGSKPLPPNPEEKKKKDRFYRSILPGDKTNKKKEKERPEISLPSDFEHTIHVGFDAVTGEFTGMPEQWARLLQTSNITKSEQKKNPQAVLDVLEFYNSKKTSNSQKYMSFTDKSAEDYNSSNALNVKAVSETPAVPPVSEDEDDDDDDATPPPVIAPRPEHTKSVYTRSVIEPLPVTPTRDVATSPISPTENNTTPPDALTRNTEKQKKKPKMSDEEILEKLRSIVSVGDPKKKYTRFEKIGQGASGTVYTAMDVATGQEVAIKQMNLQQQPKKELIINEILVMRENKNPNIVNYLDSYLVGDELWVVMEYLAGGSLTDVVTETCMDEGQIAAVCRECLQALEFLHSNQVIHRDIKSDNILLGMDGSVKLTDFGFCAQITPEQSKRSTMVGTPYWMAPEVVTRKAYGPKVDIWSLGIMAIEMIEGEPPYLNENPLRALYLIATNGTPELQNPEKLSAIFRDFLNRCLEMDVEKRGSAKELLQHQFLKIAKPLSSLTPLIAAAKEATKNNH
Sequence of Proto-oncogene tyrosine-protein kinase receptor Ret (Homo sapiens) (P07949 whole entry): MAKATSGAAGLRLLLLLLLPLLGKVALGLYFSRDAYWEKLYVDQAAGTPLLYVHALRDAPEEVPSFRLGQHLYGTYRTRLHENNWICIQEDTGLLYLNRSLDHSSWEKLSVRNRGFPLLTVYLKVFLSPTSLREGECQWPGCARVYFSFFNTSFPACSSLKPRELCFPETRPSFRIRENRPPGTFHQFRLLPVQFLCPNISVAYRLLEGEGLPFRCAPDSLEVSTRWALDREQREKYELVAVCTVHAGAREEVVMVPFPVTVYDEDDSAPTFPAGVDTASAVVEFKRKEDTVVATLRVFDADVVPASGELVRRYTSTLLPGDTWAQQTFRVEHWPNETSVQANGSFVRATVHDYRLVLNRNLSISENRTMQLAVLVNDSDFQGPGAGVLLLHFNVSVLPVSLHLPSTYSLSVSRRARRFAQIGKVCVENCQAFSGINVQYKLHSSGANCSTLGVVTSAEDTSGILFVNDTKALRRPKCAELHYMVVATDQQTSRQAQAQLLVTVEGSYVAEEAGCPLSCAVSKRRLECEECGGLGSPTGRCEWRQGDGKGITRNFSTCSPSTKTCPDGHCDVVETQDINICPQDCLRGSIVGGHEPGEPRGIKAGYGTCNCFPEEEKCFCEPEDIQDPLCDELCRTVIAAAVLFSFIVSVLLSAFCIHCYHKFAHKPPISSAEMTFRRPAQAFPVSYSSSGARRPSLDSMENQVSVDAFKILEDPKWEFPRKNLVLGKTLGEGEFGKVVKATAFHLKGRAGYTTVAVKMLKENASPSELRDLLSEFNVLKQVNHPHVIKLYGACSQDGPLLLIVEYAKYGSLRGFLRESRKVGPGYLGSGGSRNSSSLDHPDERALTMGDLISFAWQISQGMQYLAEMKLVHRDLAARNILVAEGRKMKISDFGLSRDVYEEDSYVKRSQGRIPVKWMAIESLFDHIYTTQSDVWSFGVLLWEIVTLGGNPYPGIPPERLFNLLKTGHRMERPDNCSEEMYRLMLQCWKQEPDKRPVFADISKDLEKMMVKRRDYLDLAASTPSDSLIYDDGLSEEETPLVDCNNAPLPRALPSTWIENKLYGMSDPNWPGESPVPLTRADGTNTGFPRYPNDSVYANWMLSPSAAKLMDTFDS

Row | SMILES | inhibition [1] | inhibition [2] | inhibition [3] | inhibition [4] | inhibition [5] | inhibition [6] | inhibition [7] | inhibition [8] | inhibition [9] | inhibition [10] | inhibition [11] | inhibition [12] | inhibition [13] | inhibition [14] | inhibition [15] | IC50 [16] | inhibition [17] | inhibition [18] | inhibition [19]
1 | C[C@@H]1[C@H]2C[C@@H](C[C@H]1Nc1nc(-n3[se]c4ccccc4c3=O)nc3[nH]cnc13)C2(C)C | 1% | 5% | 0% | 0% | 0% | 16% | 2% | 1% | 0% | 5% | 2% | 3% | 0% | 2% | 1% | 47.7 µM | 6% | 0% | 1%
2 | CCN(CC)CCCC(C)Nc1nc(-n2[se]c3ccccc3c2=O)nc2[nH]cnc12 (stereo not drawn) | 14% | 8% | 6% | 0% | 0% | 83% | 0% | 1% | 0% | 12% | 8% | 9% | 0% | 1% | 4% | 16.8 µM | 6% | 0% | 2%

— ChEMBL document CHEMBL5154740, “Novel Aurora A and Protein Kinase C (α, β1, β2, and θ) Multitarget Inhibitors: Impact of Selenium Atoms on the Potency and Selectivity” (J Med Chem, 2022)
